From article PMC11799997 (ACS Omega, 2025)

Assays:
[1] = system: renal brush border membrane vesicles (RBBMVs); assay: Enzyme-mediated cleavage assay with RBBMVs; assay type: in vitro ADME, rat; settings: 10 mg/mL RBBMVs, 37 °C, TLC; for release of [64Cu]Cu-cyclam-G upon incubation with RBBMVs: 10 min–24 h; for release of radiometabolite-X (% of the radioactivity): 24 h
[2] = Urinary radiometabolite assay in normal mice; assay type: in vivo, mouse; settings: for urinary radioactivity with tR consistent with [64Cu]Cu-cyclam-G: pilot, 13.3 MBq/12.4 nmol i.v., RP-HPLC
[3] = Ex vivo biodistribution study in normal mice; set-up: species or system mouse; settings: 3 to 24 h p.i.
[4] = system: U87MG tumor-bearing mice; assay: PET imaging of U87MG tumor-bearing mice; assay type: in vivo, mouse; settings: for rate of reduction in renal radioactivity level (PET): from 1 to 24 h p.i.
[5] = Whole-body dynamic PET in normal mice; settings: for RRL relative to [64Cu]Cu-cyclam-RaftRGD / renal radioactivity level (RRL): 57.5 min p.i.; for renal radioactivity level (RRL) / radioactivity in the bladder: 2.92–4.26 MBq/0.3 nmol i.v.; for radioactivity in the bladder: by 1 h p.i.
[6] = system: renal brush border enzymes (RBBMVs); assay: Enzyme inhibition study of RBBMV-mediated cleavage of the GFK linkage; assay type: biochemical, rat; settings: 1 mM inhibitor; for inhibition of release of [64Cu]Cu-cyclam-G from [64Cu]Cu-cyclam-GFK(Bz) / inhibition of release of radiometabolite-X from [64Cu]Cu-cyclam-GFK(Bz): RBBMVs 10 mg/mL, 37 °C, 5 or 24 h, TLC; for inhibition of release of [64Cu]Cu-cyclam-G from [64Cu]Cu-cyclam-GFK(Bz) (pilot): RBBMVs 3 mg/mL, 37 °C overnight, RP-HPLC
[7] = Pilot dynamic PET imaging of [64Cu]Cu-cyclam-G in normal mice

In the case of `O=C(CN1CCCNCCNCCCNCC1)NCC(=O)N[C@@H](Cc1ccccc1)C(=O)N[C@@H](CCCCNC(=O)c1ccccc1)C(=O)O` [[^64Cu]Cu-cyclam-GFK(Bz), [^64Cu]Cu-cyclam-GFK(benzoyl [Bz])-OH, metal not drawn], the “release of [64Cu]Cu-cyclam-G upon incubation with RBBMVs” value (“release … with RBBMVs” for short) [1] was “released the expected fragment”, the “release of radiometabolite-X (% of the radioactivity)” value (“release … (% of the radioactivity)” below) [1] was 43.7% and the “urinary radioactivity with tR consistent with [64Cu]Cu-cyclam-G” value ([2]; mouse urine 10 min p.i.) was 5.9%. For the same molecule, the “urinary radioactivity with tR consistent with [64Cu]Cu-cyclam-G” value ([2]; mouse urine 2 h p.i.) was 13.8%, the “urine radioactivity fraction as [64Cu]Cu-cyclam-G” value ([2]; urine 0–6 h p.i., TLC) was 27.2 ± 2.5% and the “urine radioactivity fraction as intact compound” value ([2]; urine 0–6 h p.i., TLC) was 67.6 ± 3.4%.

With `C[C@@H]1NC(=O)[C@H](CCCCNC(=O)CO/N=C/C(=O)NCCCC[C@@H]2NC(=O)[C@@H](Cc3ccccc3)NC(=O)[C@H](CC(=O)O)NC(=O)CNC(=O)[C@H](CCCNC(=N)N)NC2=O)NC(=O)CNC(=O)[C@@H]2CCCN2C(=O)[C@H](CCCCNC(=O)CO/N=C/C(=O)NCCCC[C@@H]2NC(=O)[C@@H](Cc3ccccc3)NC(=O)[C@H](CC(=O)O)NC(=O)CNC(=O)[C@H](CCCNC(=N)N)NC2=O)NC(=O)[C@H](CCCCNC(=O)CCNC(=O)CCNC(=O)CCNC(=O)[C@H](CCCCN)NC(=O)[C@H](Cc2ccccc2)NC(=O)CNC(=O)CN2CCCNCCNCCCNCC2)NC(=O)[C@H](CCCCNC(=O)CO/N=C/C(=O)NCCCC[C@@H]2NC(=O)[C@@H](Cc3ccccc3)NC(=O)[C@H](CC(=O)O)NC(=O)CNC(=O)[C@H](CCCNC(=N)N)NC2=O)NC(=O)CNC(=O)[C@@H]2CCCN2C(=O)[C@H](CCCCNC(=O)CO/N=C/C(=O)NCCCC[C@@H]2NC(=O)[C@@H](Cc3ccccc3)NC(=O)[C@H](CC(=O)O)NC(=O)CNC(=O)[C@H](CCCNC(=N)N)NC2=O)NC1=O` [[^64Cu]Cu-cyclam-GFK(βA)3-RaftRGD, metal not drawn] the “release … with RBBMVs” value [1] was “failed to release”, the “release … (% of the radioactivity)” value [1] was 22.9% and the “urine radioactivity fraction as intact compound” value ([2]; urine 0–6 h p.i., TLC) was “much lower and poorly defined for quantification”. The “urine radioactivity fraction as radiometabolite-X ([64Cu]Cu-cyclam-GF)” value ([2]; urine 0–6 h p.i., TLC) was 69.1 ± 4.5%, the “reduction of kidney radioactivity level” value [3] was 74.4% and the “reduction of liver radioactivity level” value [3] was 34%. The “tumor uptake (PET)” value ([4]; U87MG tumor, 1–24 h p.i.) was “significantly higher than those of the GFK compound”, the “rate of reduction in renal radioactivity level (PET)” value (“rate of reduction” below) [4] was 75.6 ± 1.8% and the “RRL relative to [64Cu]Cu-cyclam-RaftRGD” value [5] was 2.57 fold.

In the case of `C[C@@H]1NC(=O)[C@H](CCCCNC(=O)CO/N=C/C(=O)NCCCC[C@@H]2NC(=O)[C@@H](Cc3ccccc3)NC(=O)[C@H](CC(=O)O)NC(=O)CNC(=O)[C@H](CCCNC(=N)N)NC2=O)NC(=O)CNC(=O)[C@@H]2CCCN2C(=O)[C@H](CCCCNC(=O)CO/N=C/C(=O)NCCCC[C@@H]2NC(=O)[C@@H](Cc3ccccc3)NC(=O)[C@H](CC(=O)O)NC(=O)CNC(=O)[C@H](CCCNC(=N)N)NC2=O)NC(=O)[C@H](CCCCNC(=O)[C@H](CCCCN)NC(=O)[C@H](Cc2ccccc2)NC(=O)CNC(=O)CN2CCCNCCNCCCNCC2)NC(=O)[C@H](CCCCNC(=O)CO/N=C/C(=O)NCCCC[C@@H]2NC(=O)[C@@H](Cc3ccccc3)NC(=O)[C@H](CC(=O)O)NC(=O)CNC(=O)[C@H](CCCNC(=N)N)NC2=O)NC(=O)CNC(=O)[C@@H]2CCCN2C(=O)[C@H](CCCCNC(=O)CO/N=C/C(=O)NCCCC[C@@H]2NC(=O)[C@@H](Cc3ccccc3)NC(=O)[C@H](CC(=O)O)NC(=O)CNC(=O)[C@H](CCCNC(=N)N)NC2=O)NC1=O` [[^64Cu]Cu-cyclam-GFK-RaftRGD, metal not drawn], the “release … with RBBMVs” value [1] was “failed to release”, the “release … (% of the radioactivity)” value [1] was 18.2% and the “urine radioactivity fraction as intact compound” value ([2]; urine 0–6 h p.i., TLC) was 27.7 ± 2.4%. For the same molecule, the “urine radioactivity fraction as radiometabolite-X ([64Cu]Cu-cyclam-GF)” value ([2]; urine 0–6 h p.i., TLC) was 56.9 ± 2.0%, the “reduction of kidney radioactivity level” value [3] was 61.1% and the “reduction of liver radioactivity level” value [3] was 28.0%. For the same molecule, the “rate of reduction” value [4] was 73.0 ± 2.3% and the “RRL relative to [64Cu]Cu-cyclam-RaftRGD” value [5] was 2.98 fold.

With `C[C@@H]1NC(=O)[C@H](CCCCNC(=O)CO/N=C/C(=O)NCCCC[C@@H]2NC(=O)[C@@H](Cc3ccccc3)NC(=O)[C@H](CC(=O)O)NC(=O)CNC(=O)[C@H](CCCNC(=N)N)NC2=O)NC(=O)CNC(=O)[C@@H]2CCCN2C(=O)[C@H](CCCCNC(=O)CO/N=C/C(=O)NCCCC[C@@H]2NC(=O)[C@@H](Cc3ccccc3)NC(=O)[C@H](CC(=O)O)NC(=O)CNC(=O)[C@H](CCCNC(=N)N)NC2=O)NC(=O)[C@H](CCCCNC(=O)CN2CCCNCCNCCCNCC2)NC(=O)[C@H](CCCCNC(=O)CO/N=C/C(=O)NCCCC[C@@H]2NC(=O)[C@@H](Cc3ccccc3)NC(=O)[C@H](CC(=O)O)NC(=O)CNC(=O)[C@H](CCCNC(=N)N)NC2=O)NC(=O)CNC(=O)[C@@H]2CCCN2C(=O)[C@H](CCCCNC(=O)CO/N=C/C(=O)NCCCC[C@@H]2NC(=O)[C@@H](Cc3ccccc3)NC(=O)[C@H](CC(=O)O)NC(=O)CNC(=O)[C@H](CCCNC(=N)N)NC2=O)NC1=O` [[^64Cu]Cu-cyclam-RaftRGD, [^64Cu]Cu-cyclam-RAFT-c(-RGDfK-)4, metal not drawn] the “reduction of kidney radioactivity level” value [3] was 22.8%, the “reduction of liver radioactivity level” value [3] was 27.0% and the “rate of reduction” value [4] was 43.0 ± 4.5%.

In the case of `C[C@H](CS)C(=O)N1CCC[C@H]1C(=O)O` [captopril], the “inhibition of release of [64Cu]Cu-cyclam-G from [64Cu]Cu-cyclam-GFK(Bz)” value [6] was “partially inhibited” and the “inhibition of release of radiometabolite-X from [64Cu]Cu-cyclam-GFK(Bz)” value [6] was “partially inhibited”.

For `CC1(C)C[C@@H]1C(=O)N/C(=C\CCCCSC[C@H](N)C(=O)O)C(=O)O` [cilastatin], the “inhibition of release of [64Cu]Cu-cyclam-G from [64Cu]Cu-cyclam-GFK(Bz) (pilot)” value [6] was “remained unaffected”, the “inhibition of release of [64Cu]Cu-cyclam-G from [64Cu]Cu-cyclam-GFK(Bz)” value [6] was “not inhibited” and the “inhibition of release of radiometabolite-X from [64Cu]Cu-cyclam-GFK(Bz)” value [6] was “not inhibited”.

In the case of `NC(N)=NCCSCC(CS)C(=O)O` (stereo not drawn) [mergetpa], the “inhibition of release of [64Cu]Cu-cyclam-G from [64Cu]Cu-cyclam-GFK(Bz)” value [6] was “not inhibited” and the “inhibition of release of radiometabolite-X from [64Cu]Cu-cyclam-GFK(Bz)” value [6] was “partially inhibited”.

For `CC(C)C[C@H](NP(=O)(O)O[C@@H]1O[C@@H](C)[C@H](O)[C@@H](O)[C@H]1O)C(=O)N[C@@H](Cc1c[nH]c2ccccc12)C(=O)O` [phosphoramidon], the “inhibition of release of [64Cu]Cu-cyclam-G from [64Cu]Cu-cyclam-GFK(Bz) (pilot)” value [6] was “almost completely inhibited”, the “inhibition of release of [64Cu]Cu-cyclam-G from [64Cu]Cu-cyclam-GFK(Bz)” value [6] was “nearly completely inhibited” and the “inhibition of release of radiometabolite-X from [64Cu]Cu-cyclam-GFK(Bz)” value [6] was “barely inhibited”.

For [^64Cu]Cu-cyclam-Gly-OH, the “0–6 h urinary radioactivity levels” value ([2]; normal mice, 7.4 MBq i.v., group values) was 34.7 to 50.9 %ID, the “renal radioactivity level (RRL)” value [5] was 1.14 ± 0.15 %ID/g and the “radioactivity in the bladder” value [5] was over 70 %ID. The “reduction of renal uptake from peak” value ([7]; 1.5 to 57.5 min p.i.) was 96.7%, the renal uptake peak ([7]; 1.5 min p.i., ~7.4 MBq/2 nmol i.v.) was 20.3 ± 2.9 %ID/g and the renal uptake ([7]; 57.5 min p.i., ~7.4 MBq/2 nmol i.v.) was 0.68 ± 0.02 %ID/g. The “ID excreted in urine” value ([7]; within 60 min after injection) was “more than 70 % of ID”.

With “[^64Cu]Cu-cyclam-Gly-Phe-OH [[^64Cu]Cu-cyclam-GF]” the “renal radioactivity level (RRL)” value [5] was 1.50 ± 0.81 %ID/g and the “radioactivity in the bladder” value [5] was over 70 %ID.
